Laboratory results as given in patent US8134015B2, “Compound inhibiting in vivo phosphorous transport and medicine containing the same” (Kyowa Hakko Kirin Co., Ltd., priority 2003, dated 2012).

Target: T1, rat NaPi-2b (Rattus norvegicus, UniProt Q9JJ09)
T1 construct: expressed in transfected cells; host or cells: Xenopus oocytes injected with cRNA
T1 sequence (Q9JJ09 1-695): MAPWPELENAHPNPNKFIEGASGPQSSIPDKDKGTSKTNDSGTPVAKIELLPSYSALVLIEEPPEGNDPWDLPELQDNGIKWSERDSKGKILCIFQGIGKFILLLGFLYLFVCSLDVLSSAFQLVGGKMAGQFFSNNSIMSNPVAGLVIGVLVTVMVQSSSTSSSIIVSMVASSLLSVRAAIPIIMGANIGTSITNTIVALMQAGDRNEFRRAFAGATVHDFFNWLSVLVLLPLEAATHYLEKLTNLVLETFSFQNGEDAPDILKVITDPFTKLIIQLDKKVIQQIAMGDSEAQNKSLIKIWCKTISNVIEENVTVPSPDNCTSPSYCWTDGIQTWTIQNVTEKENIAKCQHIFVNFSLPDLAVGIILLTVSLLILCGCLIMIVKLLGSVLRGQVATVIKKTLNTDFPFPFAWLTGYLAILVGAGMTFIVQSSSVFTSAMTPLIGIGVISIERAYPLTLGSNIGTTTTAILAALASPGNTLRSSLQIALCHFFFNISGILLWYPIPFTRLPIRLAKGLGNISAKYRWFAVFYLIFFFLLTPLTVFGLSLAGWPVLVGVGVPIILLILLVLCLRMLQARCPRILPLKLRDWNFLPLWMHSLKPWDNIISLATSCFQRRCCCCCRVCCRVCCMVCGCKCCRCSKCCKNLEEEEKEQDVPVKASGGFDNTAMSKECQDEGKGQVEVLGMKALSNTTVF
Assay: Sodium-dependent phosphate uptake of Xenopus oocytes which expressed NaPi-2b (32P)
Type: cell-based
Settings: Xenopus oocytes expressing rat NaPi-2b, 32P radioactive phosphorus; read-out: IC50 (phosphate uptake inhibitory activity)
Outline: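 Steps: rat NaPi-2b cDNA cloned from small intestine; cRNA made and injected into oocytes; 2-day expression; 32P phosphate uptake with compound; % inhibition at 300/100 μM taken from one curve.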

| SMILES | IC50 [µM] |
| --- | --- |
| CCOCCN(CCOCC)Cc1ccc(C(=O)Nc2ccc(Br)cc2C(=O)N/N=C/c2cccc(F)c2)cc1 [Compound 737, 4-{[Bis-(2-ethoxy-ethyl)-amino]-methyl}-N-[4-bromo-2-(3-fluoro-benzylidene-hydrazinocarbonyl)-phenyl]-benzamide] | 4.24 |
| CCOCCN(CCOCC)Cc1ccc(C(=O)Nc2ccc(Br)cc2C(=O)N/N=C/c2ccc(Cl)c(C(F)(F)F)c2)cc1 [Compound 738, 4-{[Bis-(2-ethoxy-ethyl)-amino]-methyl}-N-[4-bromo-2-(4-chloro-3-trifluoromethyl-benzylidene-hydrazinocarbonyl)-phenyl]-benzamide] | 7.55 |
| O=C(Nc1ccc(Br)cc1C(=O)N/N=C/c1ccc(F)cc1)c1ccc(CN2CCC(CCO)CC2)cc1 [Compound 743, N-[4-Bromo-2-(4-fluoro-benzylidene-hydrazinocarbonyl)-phenyl]-4-[4-(2-hydroxy-ethyl)-piperidin-1-ylmethyl]-benzamide] | 14.4 |
| O=C(Nc1ccc(Br)cc1C(=O)N/N=C/c1ccc(Cl)c(C(F)(F)F)c1)c1ccc(CN2CCC(CCO)CC2)cc1 [Compound 745, N-[4-Bromo-2-(4-chloro-3-trifluoromethyl-benzylidene-hydrazinocarbonyl)-phenyl]-4-[4-(2-hydroxy-ethyl)-piperidin-1-ylmethyl]-benzamide] | 6.12 |
| COc1cccc(/C=N/NC(=O)c2cc(Br)ccc2NC(=O)c2ccc(CN3CCC(CCO)CC3)cc2)c1 [Compound 746, N-[4-Bromo-2-(3-methoxy-benzylidene-hydrazinocarbonyl)-phenyl]-4-[4-(2-hydroxy-ethyl)-piperidin-1-ylmethyl]-benzamide] | 16.8 |
| O=C(Nc1ccc(Br)cc1C(=O)NN=Cc1ccc(Cl)c(C(F)(F)F)c1)c1ccc(CNC(CN2CCOCC2)c2ccccc2)cc1 (stereo not shown) [Compound 747, N-[4-Bromo-2-(4-chloro-3-trifluoromethyl-benzylidene-hydrazinocarbonyl)-phenyl]-4-[(2-morpholin-4-yl-1-phenyl-ethylamino)-methyl]-benzamide] | 11.9 |
| CCN1CC(NCc2ccc(-c3nc4ccc(Br)cc4c(=O)n3/N=C/c3ccc(C)c(C)c3)cc2)CN1CC [Compound 749, 6-Bromo-2-{4-[(1,2-diethyl-pyrazolidin-4-ylamino)-methyl]-phenyl}-3-[(3,4-dimethyl-benzylidene)-amino]-3H-quinazolin-4-one] | 9.05 |
| CCN1CC(NCc2ccc(C(=O)Nc3ccc(Br)cc3C(=O)N/N=C/c3ccc(C)c(C)c3)cc2)CN1CC [Compound 750, N-[4-Bromo-2-(3,4-dimethyl-benzylidene-hydrazinocarbonyl)-phenyl]-4-[(1,2-diethyl-pyrazolidin-4-ylamino)-methyl]-benzamide] | < 3 |
| CCN1CC(NCc2ccc(-c3nc4ccc(Br)cc4c(=O)n3/N=C/c3cccc(F)c3)cc2)CN1CC [Compound 751, 6-Bromo-2-{4-[(1,2-diethyl-pyrazolidin-4-ylamino)-methyl]-phenyl}-3-[(3-fluoro-benzylidene)-amino]-3H-quinazolin-4-one] | 13.1 |
| CCN1CC(NCc2ccc(C(=O)Nc3ccc(Br)cc3C(=O)N/N=C/c3cccc(F)c3)cc2)CN1CC [Compound 752, N-[4-Bromo-2-(3-fluoro-benzylidene-hydrazinocarbonyl)-phenyl]-4-[(1,2-diethyl-pyrazolidin-4-ylamino)-methyl]-benzamide] | < 3 |
| CCN1CC(NCc2ccc(-c3nc4ccc(Br)cc4c(=O)n3/N=C/c3ccc(Cl)c(C(F)(F)F)c3)cc2)CN1CC [Compound 753, 6-Bromo-3-[(4-chloro-3-trifluoromethyl-benzylidene)-amino]-2-{4-[(1,2-diethyl-pyrazolidin-4-ylamino)-methyl]-phenyl}-3H-quinazolin-4-one] | 12.4 |
| CCN1CC(NCc2ccc(C(=O)Nc3ccc(Br)cc3C(=O)N/N=C/c3ccc(Cl)c(C(F)(F)F)c3)cc2)CN1CC [Compound 754, N-[4-Bromo-2-(4-chloro-3-trifluoromethyl-benzylidene-hydrazinocarbonyl)-phenyl]-4-[(1,2-diethyl-pyrazolidin-4-ylamino)-methyl]-benzamide] | < 3 |
| CCN1CC(NCc2ccc(C(=O)Nc3ccc(Br)cc3C(=O)N/N=C/c3ccc(OC)cc3)cc2)CN1CC [Compound 756, N-[4-Bromo-2-(4-methoxy-benzylidene-hydrazinocarbonyl)-phenyl]-4-[(1,2-diethyl-pyrazolidin-4-ylamino)-methyl]-benzamide] | 10.3 |
| Cc1ccc(/C=N/NC(=O)c2cc(Br)ccc2NC(=O)c2ccc(CNCCCN(C)c3ccccc3)cc2)cc1C [Compound 757, N-[4-Bromo-2-(3,4-dimethyl-benzylidene-hydrazinocarbonyl)-phenyl]-4-{[3-(methyl-phenyl-amino)-propylamino]-methyl}-benzamide] | 18.8 |

Same assay, conditions: phosphate uptake, oocytes expressing rat NaPi-2b; 300 μM, determined from inhibition curve

| SMILES | inhibition at 300 µM [%] |
| --- | --- |
| CCOCCN(CCOCC)Cc1ccc(C(=O)Nc2ccc(Br)cc2C(=O)N/N=C/c2ccc(F)cc2)cc1 [Compound 736, 4-{[Bis-(2-ethoxy-ethyl)-amino]-methyl}-N-[4-bromo-2-(4-fluoro-benzylidene-hydrazinocarbonyl)-phenyl]-benzamide] | 61.5 |
| CCOCCN(CCOCC)Cc1ccc(C(=O)Nc2ccc(Br)cc2C(=O)N/N=C/c2ccc(OC)cc2)cc1 [Compound 739, 4-{[Bis-(2-ethoxy-ethyl)-amino]-methyl}-N-[4-bromo-2-(4-methoxy-benzylidene-hydrazinocarbonyl)-phenyl]-benzamide] | 58.9 |
| CCOCCN(CCOCC)Cc1ccc(C(=O)Nc2ccc(Br)cc2C(=O)N/N=C/c2cccc(OC)c2)cc1 [Compound 740, 4-{[Bis-(2-ethoxy-ethyl)-amino]-methyl}-N-[4-bromo-2-(3-methoxy-benzylidene-hydrazinocarbonyl)-phenyl]-benzamide] | 58.5 |
| Cc1ccc(/C=N/NC(=O)c2cc(Br)ccc2NC(=O)c2ccc(CN3CCC(CCO)CC3)cc2)cc1 [Compound 741, N-[4-Bromo-2-(4-methyl-benzylidene-hydrazinocarbonyl)-phenyl]-4-[4-(2-hydroxy-ethyl)-piperidin-1-ylmethyl]-benzamide] | 50.9 |
| Cc1cccc(/C=N/NC(=O)c2cc(Br)ccc2NC(=O)c2ccc(CN3CCC(CCO)CC3)cc2)c1 [Compound 742, N-[4-Bromo-2-(3-methyl-benzylidene-hydrazinocarbonyl)-phenyl]-4-[4-(2-hydroxy-ethyl)-piperidin-1-ylmethyl]-benzamide] | 77.6 |
| O=C(Nc1ccc(Br)cc1C(=O)N/N=C/c1cccc(F)c1)c1ccc(CN2CCC(CCO)CC2)cc1 [Compound 744, N-[4-Bromo-2-(3-fluoro-benzylidene-hydrazinocarbonyl)-phenyl]-4-[4-(2-hydroxy-ethyl)-piperidin-1-ylmethyl]-benzamide] | 83.7 |
| COc1ccc(/C=N/NC(=O)c2cc(Br)ccc2NC(=O)c2ccc(CNC(CN3CCOCC3)c3ccccc3)cc2)cc1 (stereo not shown) [Compound 748, N-[4-Bromo-2-(4-methoxy-benzylidene-hydrazinocarbonyl)-phenyl]-4-[(2-morpholin-4-yl-1-phenyl-ethylamino)-methyl]-benzamide] | 56.5 |
| CCN1CC(NCc2ccc(-c3nc4ccc(Br)cc4c(=O)n3/N=C/c3ccc(OC)cc3)cc2)CN1CC [Compound 755, 6-Bromo-2-{4-[(1,2-diethyl-pyrazolidin-4-ylamino)-methyl]-phenyl}-3-[(4-methoxy-benzylidene)-amino]-3H-quinazolin-4-one] | 67.3 |
